Assay results reported in patent US20230030607A1, “Novel oxygen pulse therapy method for treating COVID19 and viral, bacterial, fungal or parasitic respiratory and other diseases” (priority 2021, published 2023).
Several values for one entry are separate records, joined by “and”; a condition that tells them apart may be missing. Equal entries are not always repeated.

Key:
[1] = system: COVID-19; settings: in vivo; cited from earlier work
[2] = system: COVID-19; settings: hospitalized patients; cited from earlier work
[3] = system: SARS-CoV-2; settings: human, in vivo
[4] = system: SARS-CoV-2

Row | Compound | benefit for treatment of COVID-19 [1] | effect on 28-day mortality or the in-hospital course of COVID-19 [2] | infection for COVID 19 at follow-up [3] | use of the therapy in respiratory diseases including SARS-COVID19 infections ([4]; elders, adults and children, most of them immune depressed patients) | new infection for COVID 19 at follow-up ([4]; human, in vivo) | time to recovery ([4]; human, in vivo)
1 | CCN(CCO)CCCC(C)Nc1ccnc2cc(Cl)ccc12 (stereo not shown) [hydroxychloroquine] | not been shown to offer any benefit | little or no effect | – | – | – | –
2 | lopinavir/ritonavir | – | little or no effect | – | – | – | –
3 | O=O [oxygen] | – | – | no infection for COVID 19 has been developed | satisfactory used | no new infection for COVID 19 has developed | 5 days and 3 days
